Source: patent publication US20120277368A1, “AQUEOUS DISPERSION PRESSURE-SENSITIVE ADHESIVE COMPOSITION AND PRESSURE-SENSITIVE ADHESIVE SHEET” (NITTO DENKO CORPORATION, priority 2011, published 2012)

Test: Solubility in water (25° C.) of crosslinking agent
Format: physicochemical
Procedure: Furthermore, the compound (B) is a water-soluble compound. […] (parts by weight of the compound capable of being dissolved per 100 parts by weight of water) is 1 g or more (1 g/100 g or more), preferably 10 g or more (10 g/100 g or more), and more preferably 30 g or more (30 g/100 g or more). The solubility of the compound (B) in water can be measured, for example, as follows.
Water (25° C.) and a compound (B), having the same weight, are mixed by using a stirrer under the conditions of a rotation speed of 300 rpm and 10 minutes, and the mixture is separated into an aqueous phase and an oil phase by centrifugation. The aqueous phase is then collected and dried at 120° C. for 1 hour, and the nonvolatile content (parts by weight of the nonvolatile component per 100 parts by weight of water) in the aqueous phase is determined from the weight loss on drying.

## C1OC1CN(CC1CO1)CC1CO1 (stereo not shown) [N,N,N-tri(2,3-epoxypropyl)amine]
  solubility in water (25° C.): 100 g/100 g
